Assay results reported in patent publication US12144864B2, “Tubulysins and protein-tubulysin conjugates” (Regeneron Pharmaceuticals, Inc., priority 2018, dated 2024).
Read-outs that look alike come from different tables or passages of the source.

Tests used:
Format in all cases: cell-based, human
[1] = test system: HCT15 cells; assay: cells; conditions: HCT15 cells; for HCT-15 + verapamil % Kill / HCT-15 % Kill: maximum % cell killing
Method: (§1) To test the ability of the disclosed tubulysin payloads to kill human cell lines, an in vitro cytotoxicity assay was performed. In vitro cytotoxicity of the disclosed payloads, as well as reference compounds, were evaluated using the CellTiter-Glo Assay Kit (Promega, Cat #G7573), in which the quantity of ATP present is used to determine the number of viable cells in culture. For the assay, C4-2, HEK293, or T47D cells were seeded at 4000 cells/well on Nunclon white 96-well plates in complete growth medium (DME high glucose:Ham's F12 at 4:1, 10% FBS, 100 units/ml Penicillin, 100 ug/ml streptomycin, 53 ug/ml glutatmine, 10 ug/ml insulin, 220 ng/ml biotin, 12.5 pg/ml T3, 12.5 ug/ml Adenine, 4 ug/ml transferrin for C42 cells; DME high glucose, 10% FBS, 100 units/ml Penicillin, 100 ug/ml streptomycin, 53 ug/ml glutatmine for HEK293; RPMI, 10% FBS, 100 units/ml Penicillin, 100 ug/ml streptomycin, 53 ug/ml glutatmine, 10 ug/ml insulin, 10 mM HEPEs, 200 nM Sodium Pyruvate for T47D cells) and grown overnight at 37° C. in 5% CO2. For cell viability curves, 1:3 serially diluted payloads were added to the cells at final concentrations ranging from 100 nM to […], including a no treatment control group, and were then incubated for 5 days. After the 5-day incubation, cells were incubated at room temperature with 100 μL of CellTiter-Glo reagents for 10 minutes. Relative luminescence units (RLU) were determined on a Victor plate reader (PerkinElmer). The IC50 values were determined from a four-parameter logistic equation over a 10-point response curve (GraphPad Prism). All IC50 values are expressed in molar (M) concentration. The percent cell killing (% kill) at the maximum concentration tested was estimated from the following formula (100−% viable cells). Averages±standard deviation (SD) are included where replicate experiments were performed.
In vitro cytotoxicity of the disclosed payloads as well as reference compounds were evaluated similarly as described above except using 1000 HCT15 cells, a colorectal carcinoma cell line, in growth medium (RPMI, 10% FBS, 100 units/ml Penicillin, 100 ug/ml streptomycin, 53 ug/ml glutatmine) with or without 5 ug/mL of Verapamil.

[2] = test system: HL60/MX2 cells; assay: Cytotoxicity in panel of MDR cell lines, HL60/MX2 (72 h and 144 h); conditions: for IC50: Homo sapiens
Method: as §1
(§2) To further test the ability of the disclosed tubulysin payloads, a cytotoxicity assay was performed using a panel of multidrug resistant (MDR) cell lines. In vitro cytotoxicity of the disclosed payloads as well as reference compounds were similarly evaluated as described above except using HCT-15 cells, a colorectal carcinoma cell line; H69AR, a doxorubicin resistant MDR derivative of the small cell lung cancer carcinoma cell line NCI-H69; MES-SA/MX2, a mitoxantrone resistant MDR derivative of the uterine sarcoma cell line MES-SA; and HL60/MX2, a mitoxantrone resistant MDR derivative of the acute promyelocytic leukemia cell line HL60. In these assays, cytotoxicity was evaluated in normal growth media (RPMI, 10% FBS, 100 units/ml Penicillin, 100 ug/ml streptomycin, and 53 ug/ml glutatmine for HCT-15 and HL60/MX2; RPMI, 20% FBS, 100 units/ml Penicillin, 100 ug/ml streptomycin, and 53 ug/ml glutatmine for H69-AR; Waymouths's:McCoy's (1:1), 10% FBS, 100 units/ml Penicillin, 100 ug/ml streptomycin, and 53 ug/ml glutatmine for MES-SA/MX2) with 1000 cells per well following 72 h and 144 h incubation with payloads.

[3] = test system: MES-SA/MX2 cells; assay: Cytotoxicity in panel of MDR cell lines, MES-SA/MX2 (72 h and 144 h); conditions: for IC50: Homo sapiens
Method: as §1, §2

[4] = test system: HCT-15 cells; assay: Cytotoxicity in panel of MDR cell lines, HCT-15 (72 h and 144 h); conditions: for IC50: Homo sapiens
Method: as §1, §2

[5] = test system: H69AR cells; assay: Cytotoxicity in panel of MDR cell lines, H69AR (72 h and 144 h); conditions: for IC50: Homo sapiens
Method: as §1, §2

[6] = with 5 ug/mL Verapamil, read-out: HCT-15 + verapamil IC50
[7] = Homo sapiens, HCT-15, without Verapamil, read-out: HCT-15 IC50
[8] = 72 h incubation, read-out: HL60/MX2 IC50 72 h
[9] = 144 h incubation, read-out: HL60/MX2 IC50 144 h
[10] = 72 h incubation, read-out: MES-SA/MX2 IC50 72 h
[11] = 144 h incubation, read-out: MES-SA/MX2 IC50 144 h
[12] = 72 h incubation, read-out: HCT-15 IC50 72 h
[13] = 144 h incubation, read-out: HCT-15 IC50 144 h
[14] = 72 h incubation, read-out: H69AR IC50 72 h
[15] = 144 h incubation, read-out: H69AR IC50 144 h

Row | SMILES | HCT-15 + verapamil % Kill ([1]; with 5 ug/mL Verapamil) [%] | IC50 [1, 6] [nM] | HCT-15 % Kill ([1]; without Verapamil) [%] | IC50 [1, 7] [nM] | HL60/MX2 % Kill 72 h ([2]; 72 h incubation) [%] | HL60/MX2 % Kill 144 h ([2]; 144 h incubation) [%] | IC50 [2, 8] [nM] | IC50 [2, 9] [nM] | MES-SA/MX2 % Kill 72 h ([3]; 72 h incubation) [%] | MES-SA/MX2 % Kill 144 h ([3]; 144 h incubation) [%] | IC50 [3, 10] [nM] | IC50 [3, 11] [nM] | HCT-15 % Kill 72 h ([4]; 72 h incubation) [%] | HCT-15 % Kill 144 h ([4]; 144 h incubation) [%] | IC50 [4, 12] [nM] | IC50 [4, 13] [nM] | H69AR % Kill 72 h ([5]; 72 h incubation) [%] | H69AR % Kill 144 h ([5]; 144 h incubation) [%] | IC50 [5, 14] [nM] | IC50 [5, 15] [nM] | further results
1 | C#CCCCCN(C(=O)[C@@H](NC(=O)[C@H]1CCCCN1C)[C@@H](C)CC)[C@H](C[C@@H](OC(C)=O)c1nc(C(=O)N[C@@H](Cc2ccccc2)CC(C)(C)C(=O)O)cs1)C(C)C [IVb, (4S)-4-({2-[(1R,3R)-1-(Acetyloxy)-3-[(2S,3S)—N-(hex-5-yn-1-yl)-3-methyl-2-{[(2R)-1-methylpiperidin-2-yl]formamido}pentanamido]-4-methylpentyl]-1,3-thiazol-4-yl}formamido)-2,2-dimethyl-5-phenylpentanoic acid] | 98.1 | 0.103 | 98 | 0.151 | – | – | – | – | – | – | – | – | – | – | – | – | – | – | – | – | –
2 | CCCCCCN(C(=O)[C@@H](NC(=O)[C@H]1CCCCN1C)[C@@H](C)CC)[C@H](C[C@@H](OC(C)=O)c1nc(C(=O)N[C@@H](Cc2ccc(N)cc2)CC(C)(C)C(=O)O)cs1)C(C)C [IVq, (S)-4-(2-((1R,3R)-1-Acetoxy-3-((2S,3S)—N-hexyl-3-methyl-2-((R)-1-methylpiperidine-2-carboxamido)pentanamido)-4-methylpentyl)thiazole-4-carboxamido)-5-(4-aminophenyl)-2,2-dimethylpentanoic acid] | 98.6 ± 0.7 | 0.0225 | 98.4 ± 0.8 | 0.0423 | 98.6 | 100 | < 0.015 | < 0.015 | 99.4 | 100 | 0.0589 | 0.105 | 98 | 99.8 | < 0.015 | 0.0277 | 96.9 | 99.5 | 0.0642 | 0.128 | –
3 | CCCCCCN(C(=O)[C@@H](NC(=O)[C@H]1CCCCN1C)[C@@H](C)CC)[C@H](C[C@@H](OC(C)=O)c1nc(C(=O)NC(Cc2ccc(N)c(O)c2)CC(C)(C)C(=O)O)cs1)C(C)C (stereo partly drawn) [IVx, 4-(2-((1R,3R)-1-Acetoxy-3-((2S,3S)—N-hexyl-3-methyl-2-((R)-1-methylpiperidine-2-carboxamido)pentanamido)-4-methylpentyl)thiazole-4-carboxamido)-5-(4-amino-3-hydroxyphenyl)-2,2-dimethylpentanoic acid] | – | – | – | – | 96.9 | 100 | 0.955 | 0.77 | 62.1 | 33.6 | > 100 | > 100 | 84.4 | 91 | 34.5 | 84.8 | 48.7 | 38 | > 100 | > 100 | –
4 | CCCCCCN(C(=O)[C@@H](NC(=O)[C@H]1CCCCN1C)[C@@H](C)CC)[C@H](C[C@@H](OC(C)=O)c1nc(C(=O)N[C@@H](Cc2ccc(F)cc2)CC(C)(C)C(=O)O)cs1)C(C)C [VIII, (4S)-4-({2-[(1R,3R)-1-(Acetyloxy)-3-[(2S,3S)—N-hexyl-3-methyl-2-{[(2R)-1-methylpiperidin-2-yl]formamido}pentanamido]-4-methylpentyl]-1,3-thiazol-4-yl}formamido)-5-(4-fluorophenyl)-2,2-dimethylpentanoic acid] | – | – | – | – | – | – | – | – | – | – | – | – | – | – | – | – | – | – | – | – | IC50 ([1]; with 5 ug/mL Verapamil, read-out: HCT-15 + verapamil IC50 (value in brackets)): 0.106 nM; IC50 ([1]; Homo sapiens, HCT-15, without Verapamil, read-out: HCT-15 IC50 (value in brackets)): 0.295 nM
